How the values were obtained:
Peronospora brassicae = assay: Test on Peronospora brassicae, cabbage plants, preventive spray; assay type: in vivo; details: 330 ppm; cabbage plants (Eminence variety); sprayed 24 hours before contamination; grading 5 days after contamination vs control plants
Method: (§1) The active ingredient tested is prepared by potter homogenisation in a concentrated suspension type formulation at 100 g/l. This suspension is then diluted with water to obtain the desired active material concentration.
(§2) Cabbage plants (Eminence variety) in starter cups, sown on a 50/50 peat soil-pozzolana substrate and grown at 18-20° C., are treated at the cotyledon stage by spraying with the aqueous suspension described above. Plants, used as controls, are treated with an aqueous solution not containing the active material.
After 24 hours, the plants are contaminated by spraying them with an aqueous suspension of Peronospora brassicae spores (50,000 spores per ml). The spores are collected from infected plant
The contaminated cabbage plants are incubated for 5 days at 20° C., under a humid atmosphere.
Grading is carried out 5 days after the contamination, in comparison with the control plants.

Botrytis cinerea = assay: In vivo test on Botrytis cinerea (cucumber grey mould), cucumber plants, preventive spray; details: 330 ppm; comparison compounds of WO 01/11965
Method: as §1
as §2, with “Cucumber” for “Cabbage”, “(Marketer” for “(Eminence”, “cotyledon Z11” for “cotyledon”
After 24 hours, the plants are contaminated by depositing drops of an aqueous suspension of Botrytis cinerea spores (150,000 spores per ml) on upper surface of the leaves. The spores are collected from a 15-day-old culture and are suspended in a nutrient solution-composed of: • 20 g/L of gelatin • 50 g/L of cane sugar • 2 g/L of NH4NO3 • 1 g/L of KH2PO4
The contaminated cucumber plants are settled for 5/7 days in a climatic room at 15-11° C. (day/night) and at 80% relative humidity.
Grading is carried out 5/7 days after the contamination, in comparison with the control plants.

Alternaria brassicae = assay: In vivo test on Alternaria brassicae (leaf spot of crucifers), radish plants, preventive spray; details: 330 ppm; comparison compounds of WO 01/11965
Method: as §1
Radish plants (Pernot variety) in starter cups, sown on a 50/50 peat soil-pozzolana substrate and grown at 18-20° C., are treated at the cotyledon stage by spraying with the aqueous suspension described above.
Plants, used as controls, are treated with an aqueous solution not containing the active material.
After 24 hours, the plants are contaminated by spraying them with an aqueous suspension of Alternaria brassicae spores (40,000 spores per cm^3). The spores are collected from a 12-13-day-old culture.
The contaminated radish plants are incubated for 6-7 days at about 18° C., under a humid atmosphere.
Grading is carried out 6 to 7 days after the contamination, in comparison with the control plants.

Peronospora parasitica = assay: Efficacy against Peronospora parasitica (comparison compound); assay type: in vivo; details: 330 ppm; comparison compound of WO 01/11965

Row | SMILES | protection (good (at least 50%) to total) (Peronospora brassicae) | effectiveness on Botrytis cinerea (in words) (Botrytis cinerea) | effectiveness on Alternaria brassicae (in words) (Alternaria brassicae) | efficacy against Peronospora parasitica (in words) (Peronospora parasitica)
1 | CC1=C(C(=O)NCC(NC(=O)c2c(Cl)cccc2Cl)c2ncc(C(F)(F)F)cc2Cl)SCCO1 (stereo not shown) [Compound 46] | at least 50% | – | – | –
2 | O=C(Cc1cccs1)NCc1ncc(C(F)(F)F)cc1Cl [compound 101, N-{[3-chloro-5-(trifluoromethyl)-2-pyridinyl]methyl}-5-thienylacetamide] | – | no efficacy | poor efficacy | no efficacy
3 | CCNC(=O)C(Cc1ncc(C(F)(F)F)cc1Cl)NC(=O)c1ccccc1 (stereo not shown) [compound 304, N-{1-ethylcarbamoyl-2-[3-chloro-5-(trifluoromethyl)-2-pyridinyl]-ethyl}-benzamide] | – | zero effectiveness | – | –
4 | CCNC(=O)C(Cc1ncc(C(F)(F)F)cc1Cl)NC(=O)c1ccc(Cl)cc1 (stereo not shown) [compound 306, N-{1-ethylcarbamoyl-2-[3-chloro-5-(trifluoromethyl)-2-pyridinyl]ethyl}-4-chlorobenzamide] | – | zero effectiveness | – | –
5 | CCNC(=O)C(Cc1ncc(C(F)(F)F)cc1Cl)NC(=O)c1cccc([N+](=O)[O-])c1 (stereo not shown) [compound 307, N-{1-ethylcarbamoyl-2-[3-chloro-5-(trifluoromethyl)-2-pyridinyl]ethyl}-3-nitrobenzamide] | – | zero effectiveness | poor effectiveness | –
6 | CCNC(=O)C(Cc1ncc(C(F)(F)F)cc1Cl)NC(=O)c1ccccc1Br (stereo not shown) [compound 310, N-{1-ethylcarbamoyl-2-[3-chloro-5-(trifluoromethyl)-2-pyridinyl]ethyl}-2-bromobenzamide] | – | zero effectiveness | – | –
7 | CNC(=O)C(Cc1ncc(C(F)(F)F)cc1Cl)NC(=O)c1ccccc1 (stereo not shown) [compound 314, N-{1-methylcarbamoyl-2-[3-chloro-5-(trifluoromethyl)-2-pyridinyl]ethyl}-benzamide] | – | zero effectiveness | – | –
8 | CNC(=O)C(Cc1ncc(C(F)(F)F)cc1Cl)NC(=O)c1ccc(OC)cc1 (stereo not shown) [compound 315, N-{1-methylcarbamoyl-2-[3-chloro-5-(trifluoromethyl)-2-pyridinyl]ethyl}-4-methoxybenzamide] | – | zero effectiveness | – | –
9 | CNC(=O)C(Cc1ncc(C(F)(F)F)cc1Cl)NC(=O)c1ccc(-c2ccccc2)cc1 (stereo not shown) [compound 316, N-{1-methylcarbamoyl-2-[3-chloro-5-(trifluoromethyl)-2-pyridinyl]-ethyl}-4-phenylbenzamide] | – | zero effectiveness | poor effectiveness | –
